Assays:
Format in all cases: cell-based
E. coli [1] = assay: Disc diffusion test, antibiotic discs with CBD disc; settings: antibiotic disc + 5 μM CBD disc vs antibiotic alone, 24 h
Method: (§1) Discs were impregnated with the following […]: Colistin (10 μg/ml), Rifampicin (15 μg/ml), Erythromycin (15 μg/ml), Kanamycin (30 μg/ml) and Vancomycin (5 μg/ml).
(§2) Concentration of the antibiotics used was based on previously published and established MIC values (Moskowitz et al., 2010; Rojas et al., 2017; Goldstein et al., 2018; Maclayton et al., 2006, Kshetry et al., 2016).
(§3) E. coli and S. aureus agar plates were prepared for the disc diffusion test by soaking a sterile paper disc in 5 μM CBD and placing it in the middle of the agar plate, while the impregnated antibiotic discs were placed equidistant to the CBD disc. Zone of inhibition was assessed after 24 h.

S. aureus [2] = assay: as above; settings: antibiotic disc + 5 μM CBD disc vs antibiotic alone, 24 h
Method: as §1, §2, §3

E. coli [3] = assay: CBD-mediated OMV inhibition, OMV release quantified by nanoparticle tracking analysis; settings: 1 h, vs control
Method: (§4) E. coli and S. aureus cultures were maintained by plating on Mueller-Hinton agar plates and weekly sub-culturing was performed according to previously established methods (Iqbal et. al. 2013).
(§5) Before OMV isolation, all bacterial growth medium was pre-treated before use by ultracentrifugation at 75,000 g for 24 h, to ensure minimum contamination with extracellular vesicles (EVs) from the medium.
(§6) For OMV isolation, bacteria were grown in EV-free medium (as described above) for 24 h at 37° C. and 5% CO2, the culture medium collected and centrifuged once at 400 g for 10 min for removal of cells, followed by centrifugation at 4000 g for 1 h at 4° C. to remove cell debris. […]
(§7) Samples were diluted 1:50 in sterile-filtered EV-free DPBS and the number of particles in the field of view was maintained in the range of 20-40 with a minimum concentration of samples at 5×10^7 particles/ml. Camera settings were according to the manufacturer's instructions (Malvern), five 30 sec videos per sample were recorded and replicate histograms averaged. […]
(§8) The experiment was repeated three times and the OMVs were quantified using NTA analysis. Cell viability was assessed after 1 h treatment with CBD compared to controls and before the start of every experiment using viable count.

S. aureus [4] = assay: CBD-mediated membrane vesicle inhibition, release quantified by nanoparticle tracking analysis; settings: CBD 1 or 5 μM, 1 h
Method: as §4, §5, §6, §7, §8

Compound | sensitisation to antibiotic by CBD (in words) (E. coli [1]) | increase of antibacterial effect (radius of zone of inhibition) when combined with CBD (E. coli [1]) [%] | further results
CN[C@H](CC(C)C)C(=O)N[C@H]1C(=O)N[C@@H](CC(N)=O)C(=O)N[C@H]2C(=O)N[C@H]3C(=O)N[C@H](C(=O)N[C@H](C(=O)O)c4cc(O)cc(O)c4-c4cc3ccc4O)[C@H](O)c3ccc(c(Cl)c3)Oc3cc2cc(c3O[C@@H]2O[C@H](CO)[C@@H](O)[C@H](O)[C@H]2O[C@H]2C[C@](C)(N)[C@H](O)[C@H](C)O2)Oc2ccc(cc2Cl)[C@H]1O [Vancomycin] | did not increase antibacterial effects | – | –
Colistin [Colisitin] | not | – | –
CC[C@H]1OC(=O)[C@H](C)[C@@H](O[C@H]2C[C@@](C)(OC)[C@@H](O)[C@H](C)O2)[C@H](C)[C@@H](O[C@@H]2O[C@H](C)C[C@H](N(C)C)[C@H]2O)[C@](C)(O)C[C@@H](C)C(=O)[C@H](C)[C@@H](O)[C@]1(C)O [Erythromycin] | – | 35 | effect of CBD on antibacterial activity of antibiotic (in words) (S. aureus [2]): reduced antibacterial effects
CO[C@H]1/C=C/O[C@@]2(C)Oc3c(C)c(O)c4c(O)c(c(/C=N/N5CCN(C)CC5)c(O)c4c3C2=O)NC(=O)/C(C)=C\C=C\[C@H](C)[C@H](O)[C@@H](C)[C@@H](O)[C@@H](C)[C@H](OC(C)=O)[C@@H]1C [Rifampicin] | – | 50 | –
NC[C@H]1O[C@H](O[C@H]2[C@H](O)[C@@H](O[C@H]3O[C@H](CO)[C@@H](O)[C@H](N)[C@H]3O)[C@H](N)C[C@@H]2N)[C@H](O)[C@@H](O)[C@@H]1O [Kanamycin] | – | 18 | increase of antibiotic activity (radius of zone around diffusion disk) by CBD (S. aureus [2]): 30%
C=C(C)[C@@H]1CCC(C)=C[C@H]1c1c(O)cc(CCCCC)cc1O [CBD, Cannabidiol] | – | – | reduction of total OMV release (E. coli [3]; 1 μM CBD): 73%; reduction of total OMV release (E. coli [3]; 5 μM CBD): 54%; effect on membrane vesicle release (S. aureus [4]): no effect

— US20220183997A1, “USE OF C[…] COMBINATION WITH ANTIBIOTICS” (GW Pharma Limited, priority 2019, published 2022)
